IC50 data for eight molecules are collected here from patent US11414395B2, “Heterocyclic compounds as modulators of mGluR7” (PRAGMA Therapeutics, priority 2017, dated 2022).

The term IC50 denotes the concentration that gives 50% inhibition. A low value points to higher potency.

The assay addresses human mGluR7 (Homo sapiens (Human), UniProt Q14831). In words: Inositol monophosphate production assay (IP1 assay), inhibition of L-AP4 response. The conditions noted are these: mean IC50 from at least two independent experiments; HEK293 cells transiently transfected with mGluR7, Gqtop and EAAC1; IP1 production vs EC80 L-AP4. The format is cell-based. In a few lines:
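HEK293 cells transiently co-expressing mGluR7, chimeric Gq/Gi (Gqtop) and EAAC1, switched to Glutamax medium 3 h before stimulation. IP1 measured by competitive HTRF; inhibition of an EC80-equivalent L-AP4 response, triplicate points, four-parameter fit to log IC50, mean of ≥2 experiments.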

Each structure is given as a SMILES string. Where only a bound is given, the exact number is not on record here.

Sequence of human mGluR7 (Q14831 35-915): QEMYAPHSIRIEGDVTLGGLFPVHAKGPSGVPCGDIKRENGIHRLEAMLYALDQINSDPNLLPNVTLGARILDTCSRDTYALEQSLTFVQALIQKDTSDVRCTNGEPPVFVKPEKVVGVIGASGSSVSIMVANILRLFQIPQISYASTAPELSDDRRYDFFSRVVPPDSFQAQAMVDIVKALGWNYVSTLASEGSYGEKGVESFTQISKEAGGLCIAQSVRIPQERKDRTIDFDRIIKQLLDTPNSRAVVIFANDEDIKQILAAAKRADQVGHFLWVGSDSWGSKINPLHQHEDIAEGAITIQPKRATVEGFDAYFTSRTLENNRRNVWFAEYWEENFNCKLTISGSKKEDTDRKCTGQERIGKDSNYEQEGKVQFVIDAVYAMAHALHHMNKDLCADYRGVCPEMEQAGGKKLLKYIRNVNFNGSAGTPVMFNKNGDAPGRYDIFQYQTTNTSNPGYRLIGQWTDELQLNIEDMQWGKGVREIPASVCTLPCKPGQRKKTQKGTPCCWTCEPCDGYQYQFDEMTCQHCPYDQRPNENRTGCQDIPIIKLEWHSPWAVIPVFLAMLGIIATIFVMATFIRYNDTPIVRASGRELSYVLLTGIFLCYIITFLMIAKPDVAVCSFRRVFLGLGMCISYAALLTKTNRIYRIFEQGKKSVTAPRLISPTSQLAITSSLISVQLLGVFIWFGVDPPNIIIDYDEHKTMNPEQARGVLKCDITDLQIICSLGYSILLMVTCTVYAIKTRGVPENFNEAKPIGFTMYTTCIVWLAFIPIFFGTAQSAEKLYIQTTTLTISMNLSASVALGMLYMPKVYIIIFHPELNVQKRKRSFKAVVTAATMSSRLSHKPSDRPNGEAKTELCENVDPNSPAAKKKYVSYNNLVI

In turn, `COc1cccc(C2CCc3c(cnn(-c4ncc(OCCO)cn4)c3=O)C2)c1C` (centres unmarked) [Example 119, 2-(5-(2-hydroxyethoxy)pyrimidin-2-yl)-6-(3-methoxy-2-methylphenyl)-5,6,7,8-tetrahydrophthalazin-1(2H)-one] yielded a half-inhibitory concentration (IC50) of under 500 nM.

The molecule `CC(=O)c1cccc(C2CCc3c(cnn(-c4ncccn4)c3=O)C2)c1C` (centres unmarked) [Example 120, 6-(3-acetyl-2-methylphenyl)-2-(pyrimidin-2-yl)-5,6,7,8-tetrahydrophthalazin-1(2H)-one] registered an IC50 of 1000 to 30000 nM.

`Cc1ccc(C2Cc3cnn(-c4ccccn4)c(=O)c3C2)c(C)c1` (centres unmarked) [Example 121, 6-(2,4-dimethylphenyl)-2-(pyridin-2-yl)-2,5,6,7-tetrahydro-1H-cyclopenta[d]-pyridazin-1-one]: the IC50 is 1000 to 30000 nM.

`Cc1ccc(C2CCc3c(ncn(-c4ccccn4)c3=O)C2)c(C)c1` (centres unmarked) [Example 122, 7-(2,4-dimethylphenyl)-3-(pyridin-2-yl)-5,6,7,8-tetrahydroquinazolin-4(3H)-one] returned an IC50 of under 500 nM.

Molecule `O=c1c2c(cnn1-c1ncccn1)CC(c1cccc3c1ccn3C1CC1)CC2` (centres unmarked) [Example 124, 6-(1-cyclopropyl-1H-indol-4-yl)-2-(pyrimidin-2-yl)-5,6,7,8-tetrahydrophthalazin-1(2H)-one] had a 50% inhibitory concentration (IC50) of under 500 nM.

In turn, `COc1cccc(C2CCc3c(cnn(-c4ncc(C5CC5)cn4)c3=O)C2)c1C` (centres unmarked) [Example 125, 2-(5-cyclopropylpyrimidin-2-yl)-6-(3-methoxy-2-methylphenyl)-5,6,7,8-tetrahydrophthalazin-1(2H)-one] came in with an IC50 of under 500 nM.

As for `Cc1c(OC2CC2)cccc1C1CCc2c(cnn(-c3ncc(Br)cn3)c2=O)C1` (centres unmarked) [Example 126, 2-(5-bromopyrimidin-2-yl)-6-(3-cyclopropoxy-2-methylphenyl)-5,6,7,8-tetrahydrophthalazin-1(2H)-one], the IC50 is under 500 nM.

Turning to `CC(=O)Nc1cnc(-n2ncc3c(c2=O)CCC(c2cccc(OC4CC4)c2C)C3)nc1` (centres unmarked) [Example 127, N-(2-(6-(3-cyclopropoxy-2-methylphenyl)-1-oxo-5,6,7,8-tetrahydrophthalazin-2(1H)-yl)pyrimidin-5-yl)acetamide], the IC50 was under 500 nM.
